Values of other authors as cited in patent publication US12121516B2, “Pharmaceutical composition comprising selexipag” (ACTELION PHARMACEUTICALS LTD, priority 2017, dated 2024).

Columns and labels:
[1] = tested on: healthy subjects; conditions: administered orally or by i.v. infusion
[2] = tested on: patients with pulmonary arterial hypertension; conditions: phase III, versus placebo

CC(C)N(CCCCOCC(=O)NS(C)(=O)=O)c1cnc(-c2ccccc2)c(-c2ccccc2)n1 [selexipag, 2-{4-[N-(5,6-diphenylpyrazin-2-yl)-N-isopropylamino]butyloxy}-N-(methylsulfonyl)acetamide]
tolerability [1]: generally well tolerated
risk of the primary composite end point of death or a complication related to pulmonary arterial hypertension [2]: significantly lower
